According to article PMC4113009, “Dihydroisoxazole inhibitors of Anopheles gambiae seminal transglutaminase AgTG3” (Malaria Journal, 2014):
Like-named read-outs stand apart in the source and are kept apart here. One block for each compound: values may come before it.

Legend:
hTG2 = conditions: cited from earlier work
AgTG3 [1] = molecular target: T1, AgTG3 (Anopheles gambiae, UniProt D2K8K8); experiment: biochemical; conditions: for Inhibition of AgTG3 in primary screen: 100 μM, triplicate; for Activity against AgTG3 in dose–response assay: up to 100 μM
Experimental: Plugin-C (25 μg/well) was incubated in black 96-well Ni-coated plates (Pierce 15342) for 2 h at room temperature or overnight at 4°C. Plates were washed three times with 200 μL of TBS and loaded with 0.5 μg of AgTG3 in 50 μL TBS buffer. DHI inhibitors were added for 1 h to block the enzyme, followed by 50 μL of 2× assay buffer (2× TBS, 20 mM CaCl2, 100 μM FITC-CAD, 2 mM DTT). Wells were incubated for 60 min at room temperature, washed three times with 200 μL of TBS, and filled to a final volume of 100 μL for fluorescence measurements in a microplate reader (Biotek Synergy 2). The z-score was calculated based on the mean and standard deviation of three replicates of inhibitor compared to a DMSO control, zi=x¯DMSO-x¯i/σDMSO+σi .
The targeted chemical library was screened for inhibition of AgTG3 at 100 μM in a FITC-CAD plate assay (Figure 3A), performed in triplicate as previously described. Hit-calling was based on >67% decrease in fluorescence compared to DMSO and z > 5. Seven compounds fulfilled these criteria in the primary assay.
To verify the results of this preliminary assay, dose–response curves in the range of 0.5–100 μM were determined for 27 structurally related compounds within the targeted library (Additional file 3: Table S2 and Additional file 4: Table S3). […] Selected stereoisomers present in the targeted library were compared in equivalent dose–response assays. Inhibition of AgTG3 was specific for the (S)-DHI isomer of 1 (Figure 4A), the (R) isomer (4) displaying no activity (IC50 > 100 μM).

AgTG3 [2] = molecular target: T1, AgTG3; experiment: AgTG3 plugin cross-linking assay (SDS-PAGE, FITC-CAD); format: biochemical; conditions: for Inhibition of plugin-C cross-linking by AgTG3 (controls): 10 mM EDTA, 50 mM IA, 5 mM CaCl2
Experimental: Recombinant AgTG3 was pre-incubated with 100 μM inhibitors overnight at room temperature. AgTG3, with and without pretreatment with inhibitors (1 μg), was added to plugin-C (20 μg) and 0.5 mM FITC-cadaverine (FITC-CAD) in 25 mM HEPES, pH 7.5, 10 mM CaCl2, 1 mM DTT. The reaction was incubated at room temperature for 2 h and quenched by heat denaturation of the proteins in the presence of Laemmli buffer. The extent of cross-linking was analysed by sodium dodecyl sulphate-polyacrylamide gel electrophoresis (SDS-PAGE). The gel was scanned using Alpha Imager 2200 software.
Additional assays were performed to examine whether compounds 1 and 3 would inhibit the cross-linking of plugin-C by AgTG3 in solution, with FITC-CAD for fluorescent detection of plugin-C. Results were assessed by SDS/PAGE and UV illumination to detect FITC-CAD (Figure 7). […] In the presence of enzyme, substrate and calcium a ladder of fluorescent bands of increasing molecular weight (MW) is observed (lane 4), corresponding to cross-linked oligomers of plugin also labeled by FITC-CAD. […] However, the levels of AgTG3 in solution assays are higher in the cross-linking assay than the primary screen. The levels of plugin-C were also higher, which competes with slow-binding irreversible inhibitors such as 1 and 3 for the active site of AgTG3.
Figure 7 Inhibition of plugin cross-linking by DHI inhibitors. Fluorescent image of SDS-PAGE for FITC-cadaverine labeling and cross-linking of plugin by AgTG3. Lanes (1–4): (1) AgTG3, (2) Plugin-C, (3) AgTG3 and plugin-C, (4) AgTG3, plugin-C, and 5 mM CaCl2. Lanes (5–8): AgTG3, plugin-C, 5 mM CaCl2 and (5) 10 mM EDTA, (6) 50 mM IA, (7) 100 μM 1, (8) 100 μM 3. (below) Coomassie stain indicating relative levels of monomeric Plugin-C.

human caspase-1 = molecular target: T2, human caspase-1 (Homo sapiens, UniProt P29466); experiment: Cysteine protease inhibition assay, caspase-1 (Ac-YVAD-pNA); format: biochemical; conditions: 3 at 100 μM, compared to a DMSO control, chromogenic assay
T2 construct: purchased Abcam
T2 sequence (P29466 120-297 limits assumed): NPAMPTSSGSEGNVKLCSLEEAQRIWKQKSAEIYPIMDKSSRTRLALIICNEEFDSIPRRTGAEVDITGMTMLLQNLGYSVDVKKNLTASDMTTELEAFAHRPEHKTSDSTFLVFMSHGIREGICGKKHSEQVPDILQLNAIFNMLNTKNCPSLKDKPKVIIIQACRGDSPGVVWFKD
T2 sequence (P29466 317-404 limits assumed): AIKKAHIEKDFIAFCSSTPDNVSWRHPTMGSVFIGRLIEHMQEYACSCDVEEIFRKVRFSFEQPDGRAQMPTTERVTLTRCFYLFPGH
Experimental: The activity of caspase-1 was determined by use of chromogenic substrate Ac-YVAD-pNA (Enzo Life Sciences, NY, USA). The assay was performed by adding 45 μL of 1 Unit caspase-1 (Abcam, MA, USA) and 5 μL of Ac-YVAD-pNA (final concentration, 5 μM) to 50 μL assay buffer (50 mM HEPES pH 7.4, 10 mM DTT, 1 mM EDTA, 0.1% CHAPS, 20% glycerol). Substrate cleavage after 1 h incubation at 37°C was measured by […] absorbance at 400 nm in a benchtop UV/Vis spectrophotometer (UV1800, Shimadzu, Kyoto, Japan).
(§1) Transglutaminases and cysteine proteases have a similar catalytic mechanism involving an active site cysteine and formation of a thioacyl intermediate. […] To test this hypothesis, the inhibition of two cysteine proteases, human caspase-1 and recombinant tobacco etch virus (TEV) protease by 3 at 100 μM were tested using a chromogenic and SDS-PAGE assay, respectively (Figure 9). […] Neither human caspase-1 nor TEV are endogenous proteins in A. gambiae, which may well contain other endogenous targets of 1–3, not least the two other transglutaminases in the A. gambiae genome.

[3] = molecular target: T3, recombinant tobacco etch virus (TEV) protease (Tobacco etch virus, UniProt P04517); experiment: Cysteine protease inhibition assay, TEV protease (GST-gp78 cleavage, SDS-PAGE); format: biochemical; conditions: 3 at 100 μM, compared to a DMSO control
T3 construct: recombinant tobacco etch virus (TEV) protease
Experimental: The activity of recombinant tobacco etch virus (TEV) protease was determined by cleavage of a fusion protein containing a TEV cleavage site between GST and a 17 kDa fragment of human gp78. TEV and GST-gp78 were incubated at 37°C for 10 min at a substrate:enzyme mass ratio of 10:1. The reaction was stopped by adding 3× loading buffer (150 mM Tris–HCl pH 6.8, 300 mM DTT, 6% (w/v) SDS, 0.06% (w/v) bromophenol blue, 30% (v/v) glycerol). Samples were heated at 95°C for 3 min and separated by 4–20% gradient SDS-PAGE.
as §1

[4] = tested on: model of human African trypanosomiasis; parameters: method as in PMID 21275056; conditions: cited from earlier work
[5] = parameters: method as in PMID 21275056; conditions: 50 mg/kg, intraperitoneal injection; cited from earlier work
tumor model = tested on: tumor model; parameters: method as in PMID 22996645; conditions: cited from earlier work
Drosophila = tested on: Drosophila; parameters: method as in PMID 22996645; conditions: delivered orally ad libitum, 10 μM in agar; cited from earlier work
[6] = dose–response curves in the range of 0.5–100 μM, FITC-CAD plate assay, read-out: IC50 for inhibition of AgTG3
[7] = dose–response, 27 dihydroisoxazole inhibitors, read-out: IC50 (Supplementary Table 3, AgTG3)

T1 sequence (D2K8K8 entry or part of it): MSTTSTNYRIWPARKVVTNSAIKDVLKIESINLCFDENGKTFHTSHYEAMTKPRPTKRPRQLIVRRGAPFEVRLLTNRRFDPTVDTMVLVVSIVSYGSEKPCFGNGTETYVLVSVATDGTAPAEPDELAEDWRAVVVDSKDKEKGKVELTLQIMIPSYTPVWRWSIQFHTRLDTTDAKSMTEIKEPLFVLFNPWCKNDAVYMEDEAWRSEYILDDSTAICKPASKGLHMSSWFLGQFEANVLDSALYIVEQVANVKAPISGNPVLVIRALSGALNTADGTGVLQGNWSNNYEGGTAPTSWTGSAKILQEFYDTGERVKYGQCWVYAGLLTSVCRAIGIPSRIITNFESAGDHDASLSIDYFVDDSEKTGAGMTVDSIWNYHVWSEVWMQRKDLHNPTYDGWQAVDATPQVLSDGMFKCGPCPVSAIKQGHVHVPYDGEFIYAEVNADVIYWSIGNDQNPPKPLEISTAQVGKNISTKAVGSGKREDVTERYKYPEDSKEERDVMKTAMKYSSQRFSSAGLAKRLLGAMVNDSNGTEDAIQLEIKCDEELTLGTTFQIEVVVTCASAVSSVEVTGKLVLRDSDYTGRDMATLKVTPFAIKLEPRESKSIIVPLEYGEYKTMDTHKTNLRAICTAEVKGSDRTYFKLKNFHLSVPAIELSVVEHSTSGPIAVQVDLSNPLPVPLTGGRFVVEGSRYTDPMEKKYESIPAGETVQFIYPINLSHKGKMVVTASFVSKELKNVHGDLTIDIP
T3 sequence (P04517 2038-2279): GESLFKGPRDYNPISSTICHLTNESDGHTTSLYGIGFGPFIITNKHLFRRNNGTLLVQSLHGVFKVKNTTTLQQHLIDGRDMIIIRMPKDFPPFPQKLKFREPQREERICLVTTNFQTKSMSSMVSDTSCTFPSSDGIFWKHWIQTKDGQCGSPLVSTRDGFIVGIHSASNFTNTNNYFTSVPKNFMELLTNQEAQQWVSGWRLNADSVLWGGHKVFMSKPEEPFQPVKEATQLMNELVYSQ

Structure (SMILES): NNC(=O)CSc1nc2scc(-c3ccccc3)c2c(=O)n1-c1ccccc1 [LDN-27219, reference compound]
- IC50 (hTG2): < 10 µM
- Inhibition of AgTG3 in primary screen (AgTG3 [1]): neither the eight acylidene oxoindoles tested nor the thienopyrimidinone LDN-27219 inhibited AgTG3
- Inhibition of AgTG3 in primary screen (AgTG3 [1]; listed as LD-217912): neither acylidene oxoindoles nor the thienopyrimidinone LD-217912 showed any inhibition

- IC50 (AgTG3 [1]; [6]): 56 µM
Structure (SMILES): CC(C)(C)OC(=O)N[C@@H](Cc1c[nH]c2ccc(F)cc12)C(=O)NC[C@@H]1CC(Br)=NO1

- IC50 (AgTG3 [1]; [6]): 12.2 µM
- IC50 (AgTG3 [1]; [7]): 12 µM
Structure (SMILES): O=C(N[C@@H](Cc1c[nH]c2ccc(F)cc12)C(=O)NC[C@@H]1CC(Br)=NO1)OCc1ccnc2ccccc12

- IC50 (AgTG3 [1]; [6]): 29 µM
Structure (SMILES): O=C(N[C@@H](Cc1ccccc1)C(=O)NC[C@@H]1CC(Br)=NO1)OCc1cnc2ccccc2c1 [Compound 5]

Structure (SMILES): C#Cc1ccc(COC(=O)N[C@@H](Cc2ccc(O)cc2)C(=O)NC[C@@H]2CC(Br)=NO2)cc1 [Compound D142]
- IC50 (AgTG3 [1]; [7]): > 100 µM

Structure (SMILES): CN(C(=O)OCc1cnc2ccccc2c1)[C@@H](Cc1ccccc1)C(=O)NC[C@@H]1CC(Br)=NO1 [Compound D83]
- IC50 (AgTG3 [1]; [7]): > 100 µM

Structure (SMILES): NC(=O)CI [IA, iodoacetamide, reference compound]
- Inhibition of plugin-C cross-linking by AgTG3 (controls) (AgTG3 [2]): Cross-linking is inhibited
- Inhibition of caspase-1 (human caspase-1): potent inhibitor of the enzyme
- Inhibition of TEV protease [3]: potent inhibitor of the enzyme

Structure (SMILES): C[C@@H](c1ccccc1)[C@H](NC(=O)OCc1cnc2ccccc2c1)C(=O)NC[C@@H]1CC(Br)=NO1 [Compound D94]
- IC50 (AgTG3 [1]; [7]): 84 µM

Structure (SMILES): O=C(N[C@@H](Cc1ccc(-c2ccccc2)cc1)C(=O)NC[C@@H]1CC(Br)=NO1)OCc1cnc2ccccc2c1 [Compound D84]
- IC50 (AgTG3 [1]; [7]): > 100 µM

- IC50 (AgTG3 [1]; [7]): > 100 µM
Structure (SMILES): O=C(N[C@@H](Cc1ccc(O)cc1)C(=O)NC[C@H]1CC(Br)=NO1)OCc1cnc2ccccc2c1 [Compound D62]

Structure (SMILES): O=C(N[C@@H](Cc1ccc(O)cc1)C(=O)NC[C@@H]1CC(Br)=NO1)OCC1c2ccccc2-c2ccccc21 [Compound D73]
- IC50 (AgTG3 [1]; [7]): > 100 µM

- IC50 (AgTG3 [1]; [7]): > 100 µM
- Activity against AgTG3 in dose–response assay (AgTG3 [1]): inactive
Structure (SMILES): O=C(N[C@H](Cc1ccccc1)C(=O)NC[C@@H]1CC(Br)=NO1)OCc1cnc2ccccc2c1 [Compound 6]

Structure (SMILES): O=C(O)CN(CCN(CC(=O)O)CC(=O)O)CC(=O)O [EDTA, reference compound]
- Inhibition of plugin-C cross-linking by AgTG3 (controls) (AgTG3 [2]): Cross-linking is inhibited

- IC50 (AgTG3 [1]; [7]): > 100 µM
Structure (SMILES): O=C(N[C@@H](Cc1ccc(O)cc1)C(=O)NC[C@H]1CC(Br)=NO1)OCc1ccccc1 [Compound D26]

- IC50 (AgTG3 [1]; [6]): > 100 µM
Structure (SMILES): O=C(N[C@@H](Cc1c[nH]c2ccc(F)cc12)C(=O)NC[C@H]1CC(Br)=NO1)OCc1cnc2ccccc2c1

Structure (SMILES): N[C@H](C(=O)O)[C@@H]1CC(Br)=NO1 [3-bromoacivicin]
- Activity in vivo in a model of human African trypanosomiasis [4]: active in vivo
- Acute toxicity in mice [5]: no acute toxicity

Structure (SMILES): O=C(N[C@@H](Cc1cccc2ccccc12)C(=O)NC[C@@H]1CC(Br)=NO1)OCc1cnc2ccccc2c1 [Compound D86]
- IC50 (AgTG3 [1]; [7]): > 100 µM

Structure (SMILES): N[C@H](C(=O)O)[C@@H]1CC(Cl)=NO1 [Acivicin, acivicin]
- Activity in vivo in a tumor model (tumor model): active in vivo
- Toxicity to Drosophila (Drosophila): non-toxic

Structure (SMILES): O=C(N[C@@H](Cc1c[nH]c2ccc(F)cc12)C(=O)NC[C@@H]1CC(Br)=NO1)OCc1cnc2ccccc2c1
- Inhibition of plugin-C cross-linking by AgTG3 (AgTG3 [2]; 100 μM inhibitor, 5 mM CaCl2, intensity of high MW bands): inhibited the cross-linking of plugin
- IC50 (AgTG3 [1]; [6]): 3.1 µM

Structure (SMILES): O=C(N[C@@H](CCc1ccccc1)C(=O)NC[C@@H]1CC(Br)=NO1)OCc1cnc2ccccc2c1 [Compound D85]
- IC50 (AgTG3 [1]; [7]): > 100 µM

- IC50 (AgTG3 [1]; [6]): 9.7 µM
Structure (SMILES): O=C(N[C@@H](Cc1c[nH]c2ccc(F)cc12)C(=O)NC[C@@H]1CC(Br)=NO1)OCc1cnc2ccccc2n1

Structure (SMILES): [N-]=[N+]=Nc1ccc(COC(=O)N[C@@H](Cc2ccc(O)cc2)C(=O)NC[C@@H]2CC(Br)=NO2)cc1 [Compound D143]
- IC50 (AgTG3 [1]; [7]): > 100 µM

- IC50 (AgTG3 [1]; [6]): 4.3 µM
Structure (SMILES): O=C(N[C@@H](Cc1c[nH]c2ccc(O)cc12)C(=O)NC[C@@H]1CC(Br)=NO1)OCc1cnc2ccccc2c1

- IC50 (AgTG3 [1]; [7]): > 100 µM
- Activity against AgTG3 in dose–response assay (AgTG3 [1]): inactive
Structure (SMILES): O=C(N[C@@H](Cc1ccc(I)cc1)C(=O)NC[C@@H]1CC(Br)=NO1)OCc1cnc2ccccc2c1 [Compound 11]

- IC50 (AgTG3 [1]; [7]): > 100 µM
Structure (SMILES): O=C(N[C@@H](Cc1ccc(O)cc1)C(=O)NC[C@@H]1CC(Br)=NO1)OCc1ccccc1 [Compound D27]

Structure (SMILES): C[C@@](Cc1ccccc1)(NC(=O)OCc1cnc2ccccc2c1)C(=O)NC[C@@H]1CC(Br)=NO1 [Compound D91]
- IC50 (AgTG3 [1]; [7]): > 100 µM

- IC50 (AgTG3 [1]; [6]): ~30 µM
- IC50 (AgTG3 [1]; [7]): 28 µM
Structure (SMILES): O=C(N[C@@H](Cc1ccccc1F)C(=O)NC[C@@H]1CC(Br)=NO1)OCc1cnc2ccccc2c1 [Compound 8]

Structure (SMILES): O=C(N[C@@H](Cc1ccc(O)cc1)C(=O)NC[C@H]1CC(Br)=NO1)OCC1c2ccccc2-c2ccccc21 [Compound D71]
- IC50 (AgTG3 [1]; [7]): > 100 µM

- IC50 (AgTG3 [1]; [7]): 18 µM
Structure (SMILES): O=C(N[C@@H](Cc1csc2ccccc12)C(=O)NC[C@@H]1CC(Br)=NO1)OCc1cnc2ccccc2c1
